Experimental data published in US11780893B2, “Kv1.3 blockers” (Zealand Pharma A/S, priority 2019, dated 2023).
Read-outs that look alike come from different tables or passages of the source. Bridge positions count the residues as written; N and C are the ends. Peptide text beside a SMILES is read from it.

Assays:
Kv1.2 = target: T1, Kv1.2 (Homo sapiens, UniProt P16389); assay: cell-based; conditions: CHO cells, whole-cell patch clamp; read-out: Potency IC50 (nM) Kv1.2
T1 construct: expressed in transfected cells; host or cells: Chinese Hamster Ovary (CHO)
T1 sequence (P16389 whole entry): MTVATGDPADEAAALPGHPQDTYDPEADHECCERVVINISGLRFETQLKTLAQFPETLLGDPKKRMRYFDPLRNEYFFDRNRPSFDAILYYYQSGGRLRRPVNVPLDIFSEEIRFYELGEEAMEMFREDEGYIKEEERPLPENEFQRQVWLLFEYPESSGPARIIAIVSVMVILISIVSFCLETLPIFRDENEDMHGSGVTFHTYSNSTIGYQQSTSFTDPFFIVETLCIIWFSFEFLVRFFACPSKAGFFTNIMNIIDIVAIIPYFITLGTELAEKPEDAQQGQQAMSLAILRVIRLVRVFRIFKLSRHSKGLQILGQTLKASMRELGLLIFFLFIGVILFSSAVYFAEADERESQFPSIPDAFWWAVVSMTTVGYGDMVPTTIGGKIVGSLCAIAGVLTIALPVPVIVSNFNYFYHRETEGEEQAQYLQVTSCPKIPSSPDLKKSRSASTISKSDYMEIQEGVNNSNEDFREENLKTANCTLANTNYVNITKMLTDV

Rat whole blood = Rat whole blood (Rattus norvegicus, UniProt P15384)
Chain of Rat whole blood (P15384 whole entry): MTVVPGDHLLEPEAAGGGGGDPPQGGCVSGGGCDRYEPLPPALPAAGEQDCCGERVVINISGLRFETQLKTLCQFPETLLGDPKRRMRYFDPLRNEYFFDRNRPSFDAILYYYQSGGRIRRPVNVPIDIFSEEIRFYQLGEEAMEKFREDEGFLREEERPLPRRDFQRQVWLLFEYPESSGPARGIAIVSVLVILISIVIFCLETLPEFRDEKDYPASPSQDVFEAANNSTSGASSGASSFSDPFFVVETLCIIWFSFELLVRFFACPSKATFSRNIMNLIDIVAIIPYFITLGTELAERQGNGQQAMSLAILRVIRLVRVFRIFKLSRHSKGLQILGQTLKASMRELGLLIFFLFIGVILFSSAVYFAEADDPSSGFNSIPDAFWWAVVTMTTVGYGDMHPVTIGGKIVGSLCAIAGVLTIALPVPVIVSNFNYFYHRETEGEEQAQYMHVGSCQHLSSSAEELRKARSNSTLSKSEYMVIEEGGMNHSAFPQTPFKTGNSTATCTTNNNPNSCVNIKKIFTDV

Kv1.3 = target: T2, Kv1.3 (Homo sapiens, UniProt P22001); assay: cell-based; conditions: CHO cells, whole-cell patch clamp; read-out: Potency IC50 (nM) Kv1.3
T2 construct: expressed in transfected cells; host or cells: Chinese Hamster Ovary (CHO)
T2 sequence (P22001 whole entry): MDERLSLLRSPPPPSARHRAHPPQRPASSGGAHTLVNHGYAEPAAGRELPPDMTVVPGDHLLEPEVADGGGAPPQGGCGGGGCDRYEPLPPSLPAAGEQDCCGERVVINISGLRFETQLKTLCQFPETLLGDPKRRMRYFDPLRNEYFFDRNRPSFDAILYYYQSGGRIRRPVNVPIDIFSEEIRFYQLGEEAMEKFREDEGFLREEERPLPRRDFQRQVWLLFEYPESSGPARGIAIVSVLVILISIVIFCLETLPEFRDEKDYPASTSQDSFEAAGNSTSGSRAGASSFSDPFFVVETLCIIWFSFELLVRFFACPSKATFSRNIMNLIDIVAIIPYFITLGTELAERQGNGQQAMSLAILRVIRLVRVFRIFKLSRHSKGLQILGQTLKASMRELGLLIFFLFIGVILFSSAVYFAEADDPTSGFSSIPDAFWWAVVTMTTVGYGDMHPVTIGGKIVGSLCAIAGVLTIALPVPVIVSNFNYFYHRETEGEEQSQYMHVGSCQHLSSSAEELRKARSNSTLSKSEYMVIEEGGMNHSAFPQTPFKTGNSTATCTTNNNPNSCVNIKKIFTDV

[1] = tested on: delayed-type hypersensitivity (DTH) ear swelling response; assay type: in vivo, rat; conditions: CsA 10 mg/kg per os, +/- SD
in vivo = conditions: male, rat, sc, 70 nmol/kg
[2] = tested on: Human peripheral blood mononuclear cells (PBMCs); assay: IL-2 release from anti-CD3 stimulated human PBMCs (Example 4b); assay type: cell-based; conditions: geometric mean, at least 6 replicates, read-out: anti-CD3 PBMC/IL-2 IC50
Description: Human peripheral blood mononuclear cells (PBMCs) were used to assess the effects of Kv1.3 blockers on T-cell activation as determined by IL-2 release after stimulation with anti-CD3.
Human PBMCs were obtained from Precision for Medicine (Frederick, Md.). Cells from 5 donors were used. Plate-bound anti-CD3 was used to stimulate bulk T cells in the PBMC preparations. Briefly, 96-well plates were coated with anti-CD3 antibody for app. 16 hours at 5° C., using 50 μl of a 1 μg/ml anti-CD3 solution diluted in PBS. Thereafter the plates were washed twice.
Kv1.3 blockers were subsequently diluted in medium (RPMI 1640 with Glutamax-I containing, 10% v/v Fetal Bovine Serum, 1% v/v penicillin-streptomycin Solution) and added in a volume of 50 μl. The compounds indicated in Table 4b were used at concentrations ranging from […] to 1000 nM (half log dilutions, starting concentrations varying).
Finally, 50.000 PBMCs in the same medium were added to each well in a volume of 50 μl, giving a final volume of 100 μl per well. The plates were incubated for 20-24 hours in a 37° C./5% CO2 incubator. After centrifugation of the plates, 25 μl supernatant was transferred to IL-2 detection plates (MSD Human IL-2 Tissue Culture Kit, cat #K151AHB-2) and IL-2 was measures as described by the manufacturer (Meso Scale Discovery, Rockville, Md., USA).
Results are shown in Table 4b as geometric mean of IC50 values obtained from anti-CD3 stimulated human PBMC assays. All values derive from at least 6 replicates.

Kv1.6 = target: T3, Kv1.6 (Homo sapiens, UniProt P17658); assay: cell-based
T3 construct: expressed in transfected cells; host or cells: Chinese Hamster Ovary (CHO)
T3 sequence (P17658 whole entry): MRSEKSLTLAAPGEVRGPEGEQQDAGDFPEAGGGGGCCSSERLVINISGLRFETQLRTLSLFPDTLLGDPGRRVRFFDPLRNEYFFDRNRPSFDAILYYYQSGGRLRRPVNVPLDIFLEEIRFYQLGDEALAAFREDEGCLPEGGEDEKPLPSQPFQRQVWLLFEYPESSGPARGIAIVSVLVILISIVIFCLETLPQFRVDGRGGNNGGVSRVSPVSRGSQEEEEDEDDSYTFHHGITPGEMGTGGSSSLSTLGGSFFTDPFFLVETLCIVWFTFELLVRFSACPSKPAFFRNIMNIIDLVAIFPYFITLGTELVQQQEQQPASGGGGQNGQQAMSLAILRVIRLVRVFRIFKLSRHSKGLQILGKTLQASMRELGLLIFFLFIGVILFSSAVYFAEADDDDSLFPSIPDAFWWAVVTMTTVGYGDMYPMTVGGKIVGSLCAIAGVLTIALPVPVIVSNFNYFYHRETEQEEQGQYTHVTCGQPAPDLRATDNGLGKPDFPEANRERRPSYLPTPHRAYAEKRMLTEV

[3] = target: T4, human Kv1.3 voltage-gated K+ channel (Homo sapiens, UniProt P22001); assay: cell-based; conditions: inhibition of thallium flux, CHO-DUKX cells with human Kv1.3; read-out: IC50
T4 construct: host or cells: CHO-DUKX
T4 sequence (P22001 whole entry): as the sequence (P22001 whole entry) above

Kv1.1 = target: T5, Kv1.1 (Homo sapiens, UniProt Q09470); assay: cell-based
T5 construct: expressed in transfected cells; host or cells: Chinese Hamster Ovary (CHO)
T5 sequence (Q09470 whole entry): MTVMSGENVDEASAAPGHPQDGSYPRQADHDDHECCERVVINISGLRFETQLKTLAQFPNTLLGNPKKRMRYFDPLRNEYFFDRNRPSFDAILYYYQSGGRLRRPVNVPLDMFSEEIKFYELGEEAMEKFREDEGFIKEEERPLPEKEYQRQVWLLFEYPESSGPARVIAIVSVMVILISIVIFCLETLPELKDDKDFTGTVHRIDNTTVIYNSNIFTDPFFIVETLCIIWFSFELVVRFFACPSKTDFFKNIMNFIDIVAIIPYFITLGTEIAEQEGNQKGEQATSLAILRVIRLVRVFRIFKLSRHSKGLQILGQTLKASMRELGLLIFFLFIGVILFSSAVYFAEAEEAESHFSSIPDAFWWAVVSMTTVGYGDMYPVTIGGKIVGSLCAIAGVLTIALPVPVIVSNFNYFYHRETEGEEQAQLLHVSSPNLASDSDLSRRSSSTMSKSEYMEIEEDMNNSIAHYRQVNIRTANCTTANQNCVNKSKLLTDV

For `CC[C@H](C)[C@@H]1NC(=O)[C@H](C)NC(=O)[C@H](CCCCN)NC(=O)[C@H](CC(C)C)NC(=O)[C@@H]2CSSC[C@@H](C(=O)N[C@@H](Cc3ccc(O)cc3)C(=O)N3CCC[C@H]3C(=O)N[C@@H](CCCNC(=N)N)C(=O)O)NC(=O)[C@H](CCCCN)NC(=O)[C@@H]3CSSC[C@H](NC(=O)[C@H](CCC(=O)O)NC(=O)[C@H](C(C)C)NC(=O)[C@H](CO)NC(=O)[C@H](C)NC(=O)[C@H](CO)NC(=O)[C@@H](NC(=O)[C@H](CCCNC(=N)N)NC(=O)[C@H](CCSC)NC(=O)[C@H](CC(=O)O)NC(=O)[C@H](CCSC)NC(=O)[C@@H](N)CC(N)=O)CSSC[C@H](NC(=O)[C@H](CCCCN)NC(=O)CNC(=O)[C@H](Cc4ccccc4)NC(=O)[C@H]([C@@H](C)CC)NC(=O)[C@H](CO)NC(=O)CNC1=O)C(=O)N[C@@H](CCSC)C(=O)N[C@@H](CC(N)=O)C(=O)N[C@@H](CCCCN)C(=O)N[C@@H](CCCCN)C(=O)N3)C(=O)N[C@@H](CCCCN)C(=O)N[C@@H](CCC(N)=O)C(=O)N[C@@H](CCCCN)C(=O)N2` [Compound 3] (H-NMDMRCSASVECKQKCLKAIGSIFGKCMNKKCKCYPR-OH; disulfide 6-27, 12-32, 16-34), the IC50 (Kv1.2) was 409 nM, the IC50 (Rat whole blood) was at most 1 nM and the IC50 (Kv1.3) was 0.27 nM. The “% inhibition of ear thickness (AUC of Δ ear thickness 0-48 hours)” value ([1]; Exp #1, Kv1.3 blocker 70 nmol/kg SC 24 hrs prior to KLH challenge) was 38.8 (+/−9.7) %, the “% inhibition of ear thickness (AUC of Δ ear thickness 0-48 hours)” value ([1]; Exp #2, Kv1.3 blocker 70 nmol/kg SC 24 hrs prior to KLH challenge) was 25.0 (+/−12.5) % and the “% inhibition of ear thickness (AUC of Δ ear thickness 0-48 hours)” value ([1]; Exp #3, Kv1.3 blocker 50 nmol/kg SC 24 hrs prior to KLH challenge) was 37.3 (+/−13.8) %. The AUC(0-inf) (in vivo) was 0.0839 µM·h, the Cmax (in vivo) was 36.9 nM and the half-life (in vivo) was 59.4 min. For the same compound, the IC50 [2] was 0.06 nM, the IC50 (Kv1.6; CHO cells, whole-cell patch clamp, read-out: Potency IC50 (nM) Kv1.6) was over 3000 nM and the “Selectivity Kv1.6/Kv1.3” value (Kv1.6; ratio IC50[Kv1.6]/IC50[Kv1.3]) was over 11300. The IC50 [3] was 0.3 nM, the IC50 (Kv1.1; CHO cells, whole-cell patch clamp, read-out: Potency IC50 (nM) Kv1.1) was over 3000 nM and the “Selectivity Kv1.1/Kv1.3” value (Kv1.1; ratio IC50[Kv1.1]/IC50[Kv1.3]) was over 11300.
